Results from BindingDB's records for patent US10227350 (Gilead Sciences, 2019).

Target: Phosphatidylinositol 4,5-bisphosphate 3-kinase catalytic subunit beta isoform (Homo sapiens, UniProt P42338)
Experiment: TR-FRET Assay
Method: Class I PI3K isoforms were expressed and purified as heterodimeric recombinant proteins. All assay reagents and buffers for the TR-FRET assay were purchased from Millipore. […] The compounds were added to the assay solution and incubated for 30 minutes at 25° C.

Chain of Phosphatidylinositol 4,5-bisphosphate 3-kinase catalytic subunit beta isoform (P42338 whole entry, canonical isoform): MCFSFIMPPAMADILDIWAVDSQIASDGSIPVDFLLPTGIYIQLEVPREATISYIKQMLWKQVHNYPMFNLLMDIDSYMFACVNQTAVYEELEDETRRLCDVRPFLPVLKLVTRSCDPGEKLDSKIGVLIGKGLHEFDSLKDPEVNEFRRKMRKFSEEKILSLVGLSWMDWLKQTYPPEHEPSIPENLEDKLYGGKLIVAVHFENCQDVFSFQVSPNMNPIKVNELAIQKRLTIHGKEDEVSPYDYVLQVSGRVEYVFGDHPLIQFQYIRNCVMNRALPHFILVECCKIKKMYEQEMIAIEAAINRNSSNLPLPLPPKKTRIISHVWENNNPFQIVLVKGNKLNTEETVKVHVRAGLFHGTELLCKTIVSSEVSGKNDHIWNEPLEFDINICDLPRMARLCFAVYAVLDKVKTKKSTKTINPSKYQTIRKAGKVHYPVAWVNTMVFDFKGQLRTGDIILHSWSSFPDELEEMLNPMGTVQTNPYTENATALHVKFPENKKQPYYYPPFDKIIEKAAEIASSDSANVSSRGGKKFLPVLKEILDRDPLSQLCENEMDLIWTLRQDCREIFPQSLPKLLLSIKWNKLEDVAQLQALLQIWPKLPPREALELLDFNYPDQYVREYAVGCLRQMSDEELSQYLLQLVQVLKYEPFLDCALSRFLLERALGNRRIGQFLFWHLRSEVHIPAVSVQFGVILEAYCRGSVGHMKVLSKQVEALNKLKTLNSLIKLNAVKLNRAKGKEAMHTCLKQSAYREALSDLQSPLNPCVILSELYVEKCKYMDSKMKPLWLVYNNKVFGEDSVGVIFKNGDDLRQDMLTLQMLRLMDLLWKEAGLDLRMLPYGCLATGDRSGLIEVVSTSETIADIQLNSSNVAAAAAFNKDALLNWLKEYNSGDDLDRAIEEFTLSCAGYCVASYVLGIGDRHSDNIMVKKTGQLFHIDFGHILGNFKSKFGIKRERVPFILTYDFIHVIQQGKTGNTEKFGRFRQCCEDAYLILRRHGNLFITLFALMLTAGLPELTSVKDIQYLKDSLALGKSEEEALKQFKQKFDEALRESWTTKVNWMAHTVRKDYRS

SMILES	IC50 [nM]
Cc1cc(-c2cc(-c3nnc[nH]3)c3nc(C)n(-c4ccnc5c(Cl)cccc45)c3c2)ccn1 [US10227350, Compound 40]	5
CCCc1nc2c(-c3nnc[nH]3)cc(-c3ccnc(N)c3F)cc2n1-c1ccnc2c(Cl)ccc(F)c12 [US10227350, Compound 84]	4
